Values of other authors in patent US12629325B2, “Increased solubilization of Bemotrizinol” (DSM IP ASSETS B.V., priority 2020, dated 2026).
Read-outs that look alike come from different tables or passages of the source.

Conditions: for Solubility in esters: particularly C12-15 alkyl benzoate
[1] = listed as UV-filter of the formula (I)

Solubility in alkanes: very low
Solubility in alkanes [1]: insoluble
Solubility in esters: moderate solubility
Solubility in esters [1]: very soluble
Solubility in water: very low
Solubility in water [1]: insoluble
Structure (SMILES): CCCCC(CC)COc1ccc(-c2nc(-c3ccc(OC)cc3)nc(-c3ccc(OCC(CC)CCCC)cc3O)n2)c(O)c1 (stereo not drawn) [Bemotrizinol, 2,4-Bis-{[4-(2-ethyl-hexyloxy)-2-hydroxy]-phenyl}-6-(4-methoxyphenyl)-1,3,5-triazine]
